Results: article PMC6812366 (ACS Omega, 2019)

Tests used:
[1] = target: T1, hDcpS (human decapping scavenger enzyme) (Homo sapiens, UniProt Q96C86); test: intrinsic Trp fluorescence quenching titration, association constant Kas; format: binding
[2] = target: T2, CeDcpS (C. elegans decapping scavenger enzyme) (Caenorhabditis elegans, UniProt G5EFS4); test: as above; format: binding
T2 sequence (G5EFS4 1-311): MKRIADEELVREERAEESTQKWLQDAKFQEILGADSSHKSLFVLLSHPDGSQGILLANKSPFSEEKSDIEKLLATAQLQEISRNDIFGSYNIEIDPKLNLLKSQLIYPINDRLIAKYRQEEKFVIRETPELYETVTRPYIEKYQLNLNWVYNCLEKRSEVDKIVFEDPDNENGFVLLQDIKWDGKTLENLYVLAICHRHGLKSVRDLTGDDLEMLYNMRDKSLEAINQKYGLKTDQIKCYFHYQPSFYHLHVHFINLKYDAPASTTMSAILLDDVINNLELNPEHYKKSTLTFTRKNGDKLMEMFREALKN

[3] = target: T2, CeDcpS (C. elegans decapping scavenger enzyme); test: HPLC decapping assay with recombinant enzyme, hydrolysis rate V0 at […] substrate; format: biochemical
[4] = target: T1, hDcpS (human decapping scavenger enzyme); test: as above; format: biochemical

T1 sequence (Q96C86 2-337): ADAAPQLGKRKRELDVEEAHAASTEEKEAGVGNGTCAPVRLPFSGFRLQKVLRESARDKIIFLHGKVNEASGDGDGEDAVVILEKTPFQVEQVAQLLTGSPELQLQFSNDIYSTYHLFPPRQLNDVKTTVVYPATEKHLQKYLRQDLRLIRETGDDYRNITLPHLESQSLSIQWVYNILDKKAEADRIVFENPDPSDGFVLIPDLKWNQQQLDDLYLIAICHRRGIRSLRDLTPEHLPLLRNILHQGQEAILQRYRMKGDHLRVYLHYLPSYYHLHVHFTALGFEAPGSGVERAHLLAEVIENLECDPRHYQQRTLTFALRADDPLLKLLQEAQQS

SMILES | Kd [1] | Kd [2] | CeDcpS [3] | hDcpS [4]
CNc1nc2c(c(=O)[nH]1)[n+](C)cn2[C@@H]1O[C@H](COP(=O)(O)O)[C@@H](O)[C@H]1O [m2m7GMP] | 286 nM | 136 nM |  | 
C[n+]1cn([C@@H]2O[C@H](COP(=O)(O)OP(=O)(O)OP(=O)(O)OC[C@H]3O[C@@H](n4cnc5c(=O)[nH]c(N)nc54)[C@H](O)[C@@H]3O)[C@@H](O)[C@H]2O)c2nc(N)[nH]c(=O)c21 [m7GpppG, P1-(7-methylguanosin-5′-yl)-P3-guanosin-5′-yl triphosphate] |  |  | 1.83 ± 0.21 µM/min | 4.33 ± 0.23 µM/min
